Assay results: patent US9687432B2, “Antimicrobial bispyridine amine compositions and uses” (LONZA INC., priority 2012, dated 2017)
Counter-ions that a name gives are not always drawn. Like-named read-outs stand apart in the source and are kept apart here.

Columns and labels:
[1] = tested on: Aspergillus niger (16404); assay: Minimum Inhibitory Concentration (MIC) test, 96-well microtiter plate; type: cell-based; settings: 48 hrs at 36° C., Sabouraud Dextrose Broth
Procedure: (§1) MICs for the organisms were determined using a standard 96-well microtiter plate assay in Tryptic Soy Broth (TSB) or Sabouraud Dextrose Broth (SDB). A stock solution (2500 ppm) of Octenidine distearate was prepared in methanol and stock solutions (2500 ppm) of Octenidine dihydrochloride and PHMB were prepared in absolute ethanol. […] Fungal inocula were grown up on Sabouraud Dextrose Agar plates (yeast) or Potato Dextrose Agar plates (mold) and mold spores and yeast cells were adjusted to approximately 100,000 per milliliter in Sabouraud Dextrose Broth (pH 5.6). Bacterial and fungal cultures were used to inoculate the serially diluted antimicrobials in the 96 well microplate and the plate was then incubated for 48 hrs at 36° C. The lowest concentration of test compound inhibiting growth at 48 hrs. (as determined by visual inspection) was recorded as the Minimum Inhibitory Concentration (MIC)

[2] = tested on: Aureobasidium pullulans (9348); assay: as above; type: cell-based; settings: 48 hrs at 36° C., Sabouraud Dextrose Broth
Procedure: as §1

[3] = tested on: Bacillus subtilus (6633); assay: as above; type: cell-based; settings: 48 hrs at 36° C., visual inspection
Procedure: as §1

[4] = tested on: Candida albicans (10231); assay: as above; type: cell-based; settings: 48 hrs at 36° C., Sabouraud Dextrose Broth
Procedure: as §1

[5] = tested on: Enterobacter gergoviae (33028); assay: as above; type: cell-based; settings: 48 hrs at 36° C., visual inspection
Procedure: as §1

[6] = tested on: Enterococcus hirae (8043); assay: as above; type: cell-based; settings: 48 hrs at 36° C., visual inspection
Procedure: as §1

[7] = tested on: Escherichia coli (10536); assay: as above; type: cell-based; settings: 48 hrs at 36° C., visual inspection
Procedure: as §1

[8] = tested on: Gliocladium virens (9645); assay: as above; type: cell-based; settings: 48 hrs at 36° C., Sabouraud Dextrose Broth
Procedure: as §1

[9] = tested on: Klebsiella pneumoniae (4352); assay: as above; type: cell-based; settings: 48 hrs at 36° C., visual inspection
Procedure: as §1

[10] = tested on: LB penicillium sp.; assay: as above; type: cell-based; settings: 48 hrs at 36° C., Sabouraud Dextrose Broth
Procedure: as §1

[11] = tested on: Paecilomyces sp.; assay: as above; type: cell-based; settings: 48 hrs at 36° C., Sabouraud Dextrose Broth
Procedure: as §1

[12] = tested on: Penicillium pinophilium (11797); assay: as above; type: cell-based; settings: 48 hrs at 36° C., Sabouraud Dextrose Broth
Procedure: as §1

[13] = tested on: Pseudomonas aeruginosa (15442); assay: as above; type: cell-based; settings: 48 hrs at 36° C., visual inspection
Procedure: as §1

[14] = tested on: Pseudomonas aeruginosa (9027); assay: as above; type: cell-based; settings: 48 hrs at 36° C., visual inspection
Procedure: as §1

[15] = tested on: Staphylococcus aureus (6538); assay: as above; type: cell-based; settings: 48 hrs at 36° C., visual inspection
Procedure: as §1

[16] = Foam height test; type: physicochemical; settings: for foam height, 30 sec / foam height, 1 min / foam height, 2 min / foam height, Initial Reading: 0.5 grams in 49.5 ml DI water; for foam height, 30 sec / foam height, 1 min / foam height, 2 min: 100 ml graduated cylinder; for foam height, Initial Reading: read in 100 ml graduated cylinder with 1 ml line increments; for Type of Foam: 0.5 grams of active in 49.5 ml DI water, blended 1 minute
Procedure: The testing was performed on samples containing octenidine dihydrochloride, octenidine distearate, PHMB HCl and the chloride salts benzalkonium chloride, benzethonium chloride, and cetylpyridinium chloride.
A 250 ml beaker was filed with 49.5 ml of deionized (DI) water for each sample. Then, 0.5 grams of the active was added to the beaker. Each solution was blended with a Bamix® wand homogenizer/mixer for 1 minute. The solution was then poured into a 100 ml graduated cylinder with 1 ml line increments. The height of the foam was documented at an initial, 30 second, 1 minute, and 2 minute time point.

[17] = tested on: EpiDerm™ Skin Model (EPI-200); assay: MatTek EpiDerm MTT Viability Assay (dermal irritancy); type: cell-based, human
Procedure: The MatTek EpiDerm™ MTT Viability Assay (MatTek Corp.) was utilized to determine the dermal irritancy and toxicology of octenidine distearate and octenidine dihydrochloride. The assay was performed using the EpiDerm™ Skin Model (EPI-200) as well as the Methyl thiazole tetrazolium (MT) Kit (MTT-100). The EpiDerm™ Skin Model closely parallels human skin, thus providing a useful in vitro method to assess dermal irritancy and toxicology.
Negative controls (treated with tissue culture water) were tested at 4 hours only. Following treatment, the viability of the tissues was determined using MTT uptake and reduction. The absorbance of each sample was measured at 540 nm using a reference wavelength of 690 nm. The viability was then expressed as a percent of Negative Control or Vehicle Control values. The mean percent viability for each time point was used to calculate and ET50, which represents the time at which the EpiDerm™ tissue viability was reduced 50%, compared to Negative Control or Vehicle Control tissues. The ET50 scores were converted to an irritancy classification.
MTT Reduction: 704 μl of mineral oil were heated at 70 C for 10 minutes.
Before use, tissues were incubated (37° C.±1 C, 5%±1% CO2) with assay medium (MatTek) for a one-hour equilibration. Equilibration medium was replaced with fresh medium before dosing.
The test articles were diluted as described in the sample preparation above. 100 μl of the test article dilution were mixed with 1 ml of MTT solution (1 mg/ml MTT diluted in Dulbecco's Modified Eagle's Medium (DMEM). A negative control (100 μl of tissue culture water) and a vehicle control (100 μl of mineral oil) were tested concurrently. The solutions were incubated at room temperature in the dark for 60 minutes. After incubation, the solutions were visually inspected for purple coloration, which is a positive indication that the test article reduced MTT. Since tissue viability is based on MTT reduction, direct reduction by a test article can exaggerate viability, making a test article seem less irritating that it really is.
100 μl of the test article dilutions were applied to the top of each EpiDerm™ tissue. The test articles remained in contact with the EpiDerm™ tissue for 1, 4 and 24 hours. Vehicle controls (TCH20 and mineral oil) for the test articles were tested at 4 hours. A positive control (1% Triton® X-100) was tested at 4 and 9 hours. […]
At the end of the selected exposure periods, each EpiDerm™ tissue was rinsed with phosphate buffered saline (PBS) and transferred to a 24-well plate containing 300 μl of MTT solution (1 mg/ml MTT in DMEM). […] An aliquot of the extracted MTT formazan was measured at 540 nm using a plate reader (pQuant Plate Reader, Bio-Tek Instruments, Winooski, Vt.), subtracting the absorbance at a reference wavelength of 690 nm.

In the case of `CCCCCCCCCCCCCCCCCC(=O)O.CCCCCCCCCCCCCCCCCC(=O)O.CCCCCCCCN=c1ccn(CCCCCCCCCCn2ccc(=NCCCCCCCC)cc2)cc1` [Octenidine distearate, octenidine distearate], the “Minimum Inhibitory Concentration (MIC)” value [1] was 9.77 ppm, the “Minimum Inhibitory Concentration (MIC)” value [2] was 1.22 ppm and the “Minimum Inhibitory Concentration (MIC)” value [3] was 1.22 ppm. For the same compound, the “Minimum Inhibitory Concentration (MIC)” value [4] was 0.61 ppm, the “Minimum Inhibitory Concentration (MIC)” value [5] was 4.88 ppm and the “Minimum Inhibitory Concentration (MIC)” value [6] was 4.88 ppm. For the same compound, the “Minimum Inhibitory Concentration (MIC)” value [7] was 2.44 ppm, the “Minimum Inhibitory Concentration (MIC)” value [8] was 2.44 ppm and the “Minimum Inhibitory Concentration (MIC)” value [9] was 2.44 ppm. For the same compound, the “Minimum Inhibitory Concentration (MIC)” value [10] was 2.44 ppm, the “Minimum Inhibitory Concentration (MIC)” value [11] was 156.25 ppm and the “Minimum Inhibitory Concentration (MIC)” value [12] was 2.44 ppm. The “Minimum Inhibitory Concentration (MIC)” value [13] was 19.53 ppm, the “Minimum Inhibitory Concentration (MIC)” value [14] was 4.88 ppm and the “Minimum Inhibitory Concentration (MIC)” value [15] was 2.44 ppm. The “foam height, 30 sec” value [16] was 60, the “foam height, 1 min” value [16] was 56 and the “foam height, 2 min” value [16] was 52. The “foam height, Initial Reading” value [16] was 70, the “Type of Foam” value [16] was “Loose” and the “ET50” value [17] was greater than 24.0 h. The “ET50 (hrs)” value [17] was “greater than 24.0 hrs” and the “Irritancy Classification” value [17] was “Non-Irritating”.
Work on `CCCCCCCCN=c1ccn(CCCCCCCCCCn2ccc(=NCCCCCCCC)cc2)cc1` [Octenidine HCl, Octenidine dihydrochloride] yielded an MIC [1] of 1.22 µg/mL, an MIC [2] of 0.61 µg/mL and an MIC [3] of 0.61 µg/mL. It also gave an MIC [4] of 0.31 µg/mL, an MIC ([5]; Pluralibacter gergoviae) of 1.22 µg/mL and an MIC [6] of 0.61 µg/mL. The MIC [7] was 0.61 µg/mL, the MIC ([8]; Trichoderma virens) was less than 0.31 µg/mL and the MIC [9] was 0.61 µg/mL. The MIC [10] was 0.61 µg/mL, the MIC [11] was 78.1 µg/mL and the MIC [12] was less than 0.31 µg/mL. For the same compound, the MIC [13] was 1.22 µg/mL, the MIC [14] was 1.22 µg/mL and the MIC [15] was 0.61 µg/mL. For the same compound, the “foam height, 30 sec” value [16] was 80, the “foam height, 1 min” value [16] was 78 and the “foam height, 2 min” value [16] was 70. For the same compound, the “foam height, Initial Reading” value [16] was 86, the “Type of Foam” value [16] was “Slightly loose” and the “ET50” value ([17]; human, 1.25 % w/v) was 1.1 h.
